Experimental data: ChEMBL document CHEMBL1152560, “Substituted 2-arylbenzothiazoles as kinase inhibitors: hit-to-lead optimization” (Bioorg Med Chem, 2009)

Experiments:
[1] = biological target: T1, TGF-beta receptor type-1 (Homo sapiens) (UniProt P36897); assay: Residual activity of TGFB-R1 at 0.1 uM by microplate scintillation counting
T1 sequence (whole entry): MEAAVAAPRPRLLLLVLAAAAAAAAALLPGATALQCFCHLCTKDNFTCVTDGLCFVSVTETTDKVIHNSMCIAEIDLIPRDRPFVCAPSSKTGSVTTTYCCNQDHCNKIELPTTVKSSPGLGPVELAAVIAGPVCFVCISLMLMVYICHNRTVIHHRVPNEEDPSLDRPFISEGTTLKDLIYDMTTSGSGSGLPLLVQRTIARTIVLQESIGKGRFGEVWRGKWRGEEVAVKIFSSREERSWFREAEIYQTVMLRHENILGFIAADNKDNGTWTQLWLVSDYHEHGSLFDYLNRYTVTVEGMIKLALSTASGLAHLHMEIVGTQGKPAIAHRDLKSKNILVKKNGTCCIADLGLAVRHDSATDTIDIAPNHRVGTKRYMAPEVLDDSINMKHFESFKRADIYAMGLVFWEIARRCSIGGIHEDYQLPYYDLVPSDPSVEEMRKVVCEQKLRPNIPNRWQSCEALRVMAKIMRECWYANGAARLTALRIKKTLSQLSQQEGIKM

[2] = biological target: T2, Tyrosine-protein kinase receptor TYRO3 (Homo sapiens) (UniProt Q06418); assay: Residual activity of TYRO3 at 1 uM by microplate scintillation counting
T2 sequence (whole entry): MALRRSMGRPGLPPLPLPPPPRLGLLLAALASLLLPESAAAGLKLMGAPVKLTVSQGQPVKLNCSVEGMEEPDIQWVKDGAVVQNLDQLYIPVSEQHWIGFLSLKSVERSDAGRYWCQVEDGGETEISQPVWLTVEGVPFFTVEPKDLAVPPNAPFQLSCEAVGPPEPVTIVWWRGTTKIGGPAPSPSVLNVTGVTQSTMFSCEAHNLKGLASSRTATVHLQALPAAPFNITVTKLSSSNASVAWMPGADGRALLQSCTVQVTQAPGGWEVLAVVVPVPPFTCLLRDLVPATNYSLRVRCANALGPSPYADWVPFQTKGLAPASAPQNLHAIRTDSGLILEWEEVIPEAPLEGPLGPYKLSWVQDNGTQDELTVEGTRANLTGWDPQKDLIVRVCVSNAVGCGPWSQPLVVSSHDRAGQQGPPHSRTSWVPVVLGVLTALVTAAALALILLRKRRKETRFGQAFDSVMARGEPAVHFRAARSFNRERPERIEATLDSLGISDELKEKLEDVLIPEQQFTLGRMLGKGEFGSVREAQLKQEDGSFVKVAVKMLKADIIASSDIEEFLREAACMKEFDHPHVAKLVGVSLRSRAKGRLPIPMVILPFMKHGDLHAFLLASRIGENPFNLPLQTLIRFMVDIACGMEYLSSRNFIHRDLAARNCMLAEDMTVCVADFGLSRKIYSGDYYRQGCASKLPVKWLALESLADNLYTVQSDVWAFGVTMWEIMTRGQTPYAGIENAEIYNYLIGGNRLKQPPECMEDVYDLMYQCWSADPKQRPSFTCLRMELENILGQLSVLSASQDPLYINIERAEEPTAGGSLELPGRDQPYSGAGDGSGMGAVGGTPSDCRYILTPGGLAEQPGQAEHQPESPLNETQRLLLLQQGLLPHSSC

[3] = biological target: T3, Ephrin type-B receptor 1 (Homo sapiens) (UniProt P54762); assay: Residual activity of EPHB1 at 0.1 uM by microplate scintillation counting
T3 sequence (whole entry): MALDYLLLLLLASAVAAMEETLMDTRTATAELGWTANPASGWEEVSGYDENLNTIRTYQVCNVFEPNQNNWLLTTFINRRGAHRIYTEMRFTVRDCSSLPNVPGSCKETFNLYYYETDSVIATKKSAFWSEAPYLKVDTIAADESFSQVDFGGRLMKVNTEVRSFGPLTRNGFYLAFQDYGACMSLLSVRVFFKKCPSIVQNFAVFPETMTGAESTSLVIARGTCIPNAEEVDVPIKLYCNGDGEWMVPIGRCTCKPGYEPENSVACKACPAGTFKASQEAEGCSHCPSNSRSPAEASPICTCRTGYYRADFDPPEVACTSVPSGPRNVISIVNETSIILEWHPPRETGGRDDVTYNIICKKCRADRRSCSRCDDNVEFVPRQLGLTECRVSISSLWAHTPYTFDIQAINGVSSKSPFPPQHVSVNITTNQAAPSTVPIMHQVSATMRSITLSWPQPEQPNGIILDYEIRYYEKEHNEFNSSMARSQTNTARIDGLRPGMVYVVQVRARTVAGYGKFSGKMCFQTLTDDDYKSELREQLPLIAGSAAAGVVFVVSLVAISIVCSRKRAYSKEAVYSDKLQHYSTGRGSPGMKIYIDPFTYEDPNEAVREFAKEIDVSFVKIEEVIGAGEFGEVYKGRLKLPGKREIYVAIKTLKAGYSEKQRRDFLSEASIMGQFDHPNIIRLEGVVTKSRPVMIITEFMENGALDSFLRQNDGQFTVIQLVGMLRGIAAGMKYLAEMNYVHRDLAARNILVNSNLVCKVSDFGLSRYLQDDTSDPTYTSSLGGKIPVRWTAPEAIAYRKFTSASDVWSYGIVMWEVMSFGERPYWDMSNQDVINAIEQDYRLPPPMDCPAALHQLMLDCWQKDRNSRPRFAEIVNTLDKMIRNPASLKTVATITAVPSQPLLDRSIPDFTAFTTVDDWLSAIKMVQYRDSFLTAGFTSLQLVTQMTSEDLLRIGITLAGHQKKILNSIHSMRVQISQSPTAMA

[4] = biological target: SRSF protein kinase 2 (Homo sapiens) (UniProt P78362); assay: Residual activity of SRPK2 at 0.1 uM by microplate scintillation counting
Chain of SRSF protein kinase 2 (Homo sapiens) (P78362 whole entry, looked up): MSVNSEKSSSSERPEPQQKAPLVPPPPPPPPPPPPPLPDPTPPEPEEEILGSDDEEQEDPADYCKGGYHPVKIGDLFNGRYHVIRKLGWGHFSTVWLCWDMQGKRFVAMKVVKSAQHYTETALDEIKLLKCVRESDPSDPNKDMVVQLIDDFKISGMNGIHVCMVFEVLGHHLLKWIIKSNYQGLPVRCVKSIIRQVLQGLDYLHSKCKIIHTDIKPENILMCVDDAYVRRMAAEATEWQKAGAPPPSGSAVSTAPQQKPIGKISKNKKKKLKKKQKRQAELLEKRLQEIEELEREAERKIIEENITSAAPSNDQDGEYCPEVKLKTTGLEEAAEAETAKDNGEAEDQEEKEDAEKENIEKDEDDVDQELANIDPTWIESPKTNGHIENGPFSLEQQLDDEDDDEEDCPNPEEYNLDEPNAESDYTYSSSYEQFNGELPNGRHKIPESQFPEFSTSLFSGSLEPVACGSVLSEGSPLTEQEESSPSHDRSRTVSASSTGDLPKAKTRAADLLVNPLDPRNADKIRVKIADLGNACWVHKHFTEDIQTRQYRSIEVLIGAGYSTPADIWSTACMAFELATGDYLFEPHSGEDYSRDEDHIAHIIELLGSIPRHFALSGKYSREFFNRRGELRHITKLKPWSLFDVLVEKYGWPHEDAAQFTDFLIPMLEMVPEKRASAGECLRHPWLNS

[5] = biological target: G protein-coupled receptor kinase 6 (Homo sapiens) (UniProt P43250); assay: Residual activity of GRK6 at 10 uM by microplate scintillation counting
Chain of G protein-coupled receptor kinase 6 (Homo sapiens) (P43250 whole entry, looked up): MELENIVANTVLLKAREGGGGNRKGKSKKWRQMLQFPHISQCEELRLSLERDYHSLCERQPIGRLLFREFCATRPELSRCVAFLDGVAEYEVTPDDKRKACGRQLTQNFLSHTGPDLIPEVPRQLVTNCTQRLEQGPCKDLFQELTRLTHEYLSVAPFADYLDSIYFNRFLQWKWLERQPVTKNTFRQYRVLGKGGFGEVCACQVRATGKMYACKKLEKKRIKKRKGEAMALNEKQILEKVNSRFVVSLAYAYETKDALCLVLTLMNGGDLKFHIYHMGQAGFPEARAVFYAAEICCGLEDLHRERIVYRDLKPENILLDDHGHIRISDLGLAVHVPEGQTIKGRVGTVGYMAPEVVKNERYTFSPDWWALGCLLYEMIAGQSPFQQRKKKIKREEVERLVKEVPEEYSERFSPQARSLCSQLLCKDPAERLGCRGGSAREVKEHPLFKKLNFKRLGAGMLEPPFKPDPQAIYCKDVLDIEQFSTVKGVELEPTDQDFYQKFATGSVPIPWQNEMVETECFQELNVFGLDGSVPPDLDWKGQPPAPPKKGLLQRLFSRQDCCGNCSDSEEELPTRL

[6] = biological target: MAP/microtubule affinity-regulating kinase 3 (Homo sapiens) (UniProt P27448); assay: Residual activity of MARK3 at 0.1 uM by microplate scintillation counting
Chain of MAP/microtubule affinity-regulating kinase 3 (Homo sapiens) (P27448 whole entry, looked up): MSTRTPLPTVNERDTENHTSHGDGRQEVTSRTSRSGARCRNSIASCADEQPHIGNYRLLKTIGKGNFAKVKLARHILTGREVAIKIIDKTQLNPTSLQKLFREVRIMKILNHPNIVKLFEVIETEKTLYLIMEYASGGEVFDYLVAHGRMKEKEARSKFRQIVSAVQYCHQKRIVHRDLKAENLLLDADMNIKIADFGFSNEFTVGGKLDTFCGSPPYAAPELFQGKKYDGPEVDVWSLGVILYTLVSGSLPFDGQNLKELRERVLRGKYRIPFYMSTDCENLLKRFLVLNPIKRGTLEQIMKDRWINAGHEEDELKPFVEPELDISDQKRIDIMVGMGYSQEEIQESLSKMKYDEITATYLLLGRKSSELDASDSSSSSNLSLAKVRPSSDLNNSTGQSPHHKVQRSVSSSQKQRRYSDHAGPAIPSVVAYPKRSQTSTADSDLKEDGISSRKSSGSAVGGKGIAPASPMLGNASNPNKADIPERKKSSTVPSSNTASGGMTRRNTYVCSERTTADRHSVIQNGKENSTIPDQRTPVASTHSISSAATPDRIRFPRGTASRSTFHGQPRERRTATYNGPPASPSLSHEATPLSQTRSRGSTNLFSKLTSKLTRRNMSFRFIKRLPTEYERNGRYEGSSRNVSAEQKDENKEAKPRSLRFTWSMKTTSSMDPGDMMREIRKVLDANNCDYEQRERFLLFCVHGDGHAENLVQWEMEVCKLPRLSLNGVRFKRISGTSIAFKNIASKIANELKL

[7] = system: T4, Dual specificity mitogen-activated protein kinase kinase 6 (Homo sapiens), P52564 [S207D,T211D]; assay: Residual activity of MKK6 S207D/T211D mutant at 10 uM by microplate scintillation counting
T4 sequence (whole entry): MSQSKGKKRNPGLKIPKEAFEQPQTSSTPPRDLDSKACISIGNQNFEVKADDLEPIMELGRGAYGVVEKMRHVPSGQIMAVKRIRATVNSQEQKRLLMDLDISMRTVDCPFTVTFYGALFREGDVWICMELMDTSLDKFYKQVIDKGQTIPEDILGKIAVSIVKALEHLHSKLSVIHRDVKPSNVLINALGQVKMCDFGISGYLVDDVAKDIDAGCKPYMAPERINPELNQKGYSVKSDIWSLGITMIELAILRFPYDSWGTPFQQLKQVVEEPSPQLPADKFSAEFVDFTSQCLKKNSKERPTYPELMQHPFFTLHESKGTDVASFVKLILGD

residual activity [1] [%]	residual activity [2] [%]	residual activity [3] [%]	residual activity [4] [%]	residual activity [5] [%]	residual activity [6] [%]	residual activity [7] [%]	Structure (SMILES)
90	103	99	96	105	84	148	COc1cc2c(Oc3ccc(-c4nc5ccccc5s4)cc3)ncnc2cc1OCCCN1CCCC1
96	103	123	100	104	87	164	COc1cc2c(Oc3ccc(-c4nc5ccccc5s4)cc3F)ncnc2cc1OCCCN1CCN(C)CC1
102	100	118	103	91	92	185	COc1cc2c(Oc3ccc(-c4nc5ccccc5s4)cc3)ncnc2cc1OCCCN1CCN(C)CC1
